Test results reported in US20170190671A1, “BIS(ARYL)CATECHOL DERIVATIVES AS HERBICIDES” (E I DU PONT DE NEMOURS AND COMPANY, priority 2014, published 2017).

Assays:
Assay in all cases: Test C preemergence
Format in all cases: in vivo
Conditions in all cases: scale 0 to 100
corn (Zea mays) = test system: corn (Zea mays)
In short: (§1)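 Visual ratings (0 none to 100 complete control) were made 13 to 15 days after treatment, relative to controls. Test chemicals, formulated in a non-phytotoxic solvent mixture with surfactant, were applied in the greenhouse preemergence to seeded loam-sand soil or postemergence to plants 2 to 18 cm tall.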

[1] = test system: galium (catchweed bedstraw, Galium aparine)
In short: as §1

[2] = test system: velvetleaf (Abutilon theophrasti)
In short: as §1

[3] = test system: johnsongrass (Sorghum halepense)
In short: as §1

[4] = test system: Italian ryegrass (Lolium multiflorum)
In short: as §1

[5] = test system: yellow nutsedge (Cyperus esculentus)
In short: as §1

[6] = test system: blackgrass (Alopecurus myosuroides)
In short: as §1

[7] = test system: waterhemp (common waterhemp, Amaranthus rudis)
In short: as §1

[8] = test system: pigweed (Amaranthus retroflexus)
In short: as §1

[9] = test system: barnyardgrass (Echinochloa crus-galli)
In short: as §1

[10] = test system: ragweed (common ragweed, Ambrosia elatior)
In short: as §1

[11] = test system: lambsquarters (Chenopodium album)
In short: as §1

soybean (Glycine max) = test system: soybean (Glycine max)
In short: as §1

[12] = test system: morningglory (Ipomoea coccinea)
In short: as §1

SMILES: Fc1cnc(Oc2c(Cl)cccc2Oc2ncc(Cl)cn2)nc1 [Compound 18, 5-chloro-2-[5-chloro-6-[(5-fluoro-2-pyrimidinyl)oxy]phenoxy]pyrimidine]
- Corn plant response rating (crop injury, 0 = no effect, 100 = complete kill) at 31 g/ha (corn (Zea mays); Zea mays, pre-emergence, 336 h, 31 g ai/ha, preemergence): 10%
- Corn plant response rating (crop injury, 0 = no effect, 100 = complete kill) at 62 g/ha (corn (Zea mays); Zea mays, pre-emergence, 336 h, 62 g ai/ha, preemergence): 40%
- Corn plant response rating (crop injury, 0 = no effect, 100 = complete kill) at 125 g/ha (corn (Zea mays); Zea mays, pre-emergence, 336 h, 125 g ai/ha, preemergence): 60%
- pest or weed control at 31 g/ha ([1]; Galium, pre-emergence, 336 h, 31 g ai/ha, preemergence, read-out: Plant response rating, Galium): 100%
- pest or weed control at 62 g/ha ([1]; Galium, pre-emergence, 336 h, 62 g ai/ha, preemergence, read-out: Plant response rating, Galium): 100%
- pest or weed control at 125 g/ha ([1]; Galium, pre-emergence, 336 h, 125 g ai/ha, preemergence, read-out: Plant response rating, Galium): 100%
- pest or weed control at 31 g/ha ([2]; Abutilon theophrasti, pre-emergence, 31 g ai/ha, preemergence, read-out: Plant response rating, Velvetleaf): 85%
- pest or weed control at 62 g/ha ([2]; Abutilon theophrasti, pre-emergence, 62 g ai/ha, preemergence, read-out: Plant response rating, Velvetleaf): 100%
- pest or weed control at 125 g/ha ([2]; Abutilon theophrasti, pre-emergence, 125 g ai/ha, preemergence, read-out: Plant response rating, Velvetleaf): 100%
- pest or weed control at 250 g/ha ([2]; Abutilon theophrasti, pre-emergence, 250 g ai/ha, preemergence, read-out: Plant response rating, Velvetleaf): 100%
- pest or weed control at 31 g/ha ([3]; Sorghum halepense, pre-emergence, 336 h, 31 g ai/ha, preemergence, read-out: Plant response rating, Johnsongrass): 50%
- pest or weed control at 62 g/ha ([3]; Sorghum halepense, pre-emergence, 336 h, 62 g ai/ha, preemergence, read-out: Plant response rating, Johnsongrass): 70%
- pest or weed control at 125 g/ha ([3]; Sorghum halepense, pre-emergence, 336 h, 125 g ai/ha, preemergence, read-out: Plant response rating, Johnsongrass): 90%
- pest or weed control at 31 g/ha ([4]; Lolium multiflorum, pre-emergence, 336 h, 31 g ai/ha, preemergence, read-out: Plant response rating, Ryegrass, Italian): 30%
- pest or weed control at 62 g/ha ([4]; Lolium multiflorum, pre-emergence, 336 h, 62 g ai/ha, preemergence, read-out: Plant response rating, Ryegrass, Italian): 70%
- pest or weed control at 125 g/ha ([4]; Lolium multiflorum, pre-emergence, 336 h, 125 g ai/ha, preemergence, read-out: Plant response rating, Ryegrass, Italian): 85%
- pest or weed control at 250 g/ha ([4]; Lolium multiflorum, pre-emergence, 336 h, 250 g ai/ha, preemergence, read-out: Plant response rating, Ryegrass, Italian): 95%
- pest or weed control at 31 g/ha ([5]; Cyperus, pre-emergence, 336 h, 31 g ai/ha, preemergence, read-out: Plant response rating, Nutsedge, Yellow): 0%
- pest or weed control at 62 g/ha ([5]; Cyperus, pre-emergence, 336 h, 62 g ai/ha, preemergence, read-out: Plant response rating, Nutsedge, Yellow): 25%
- pest or weed control at 125 g/ha ([5]; Cyperus, pre-emergence, 336 h, 125 g ai/ha, preemergence, read-out: Plant response rating, Nutsedge, Yellow): 25%
- pest or weed control at 31 g/ha ([6]; Alopecurus myosuroides, pre-emergence, 336 h, 31 g ai/ha, preemergence, read-out: Plant response rating, Blackgrass): 15%
- pest or weed control at 62 g/ha ([6]; Alopecurus myosuroides, pre-emergence, 336 h, 62 g ai/ha, preemergence, read-out: Plant response rating, Blackgrass): 90%
- pest or weed control at 125 g/ha ([6]; Alopecurus myosuroides, pre-emergence, 336 h, 125 g ai/ha, preemergence, read-out: Plant response rating, Blackgrass): 95%
- pest or weed control at 31 g/ha ([7]; Amaranthus tuberculatus, pre-emergence, 31 g ai/ha, preemergence, read-out: Plant response rating, Waterhemp): 100%
- pest or weed control at 62 g/ha ([7]; Amaranthus tuberculatus, pre-emergence, 62 g ai/ha, preemergence, read-out: Plant response rating, Waterhemp): 100%
- pest or weed control at 125 g/ha ([7]; Amaranthus tuberculatus, pre-emergence, 125 g ai/ha, preemergence, read-out: Plant response rating, Waterhemp): 100%
- pest or weed control at 250 g/ha ([7]; Amaranthus tuberculatus, pre-emergence, 250 g ai/ha, preemergence, read-out: Plant response rating, Waterhemp): 100%
- pest or weed control at 31 g/ha ([8]; Amaranthus retroflexus, pre-emergence, 336 h, 31 g ai/ha, preemergence, read-out: Plant response rating, Pigweed): 100%
- pest or weed control at 62 g/ha ([8]; Amaranthus retroflexus, pre-emergence, 336 h, 62 g ai/ha, preemergence, read-out: Plant response rating, Pigweed): 100%
- pest or weed control at 125 g/ha ([8]; Amaranthus retroflexus, pre-emergence, 336 h, 125 g ai/ha, preemergence, read-out: Plant response rating, Pigweed): 100%
- pest or weed control at 31 g/ha ([9]; Echinochloa crus-galli, pre-emergence, 31 g ai/ha, preemergence, read-out: Plant response rating, Barnyardgrass): 75%
- pest or weed control at 62 g/ha ([9]; Echinochloa crus-galli, pre-emergence, 62 g ai/ha, preemergence, read-out: Plant response rating, Barnyardgrass): 100%
- pest or weed control at 125 g/ha ([9]; Echinochloa crus-galli, pre-emergence, 125 g ai/ha, preemergence, read-out: Plant response rating, Barnyardgrass): 100%
- pest or weed control at 250 g/ha ([9]; Echinochloa crus-galli, pre-emergence, 250 g ai/ha, preemergence, read-out: Plant response rating, Barnyardgrass): 100%
- pest or weed control at 31 g/ha ([10]; Ambrosia artemisiifolia, pre-emergence, 336 h, 31 g ai/ha, preemergence, read-out: Plant response rating, Ragweed): 85%
- pest or weed control at 62 g/ha ([10]; Ambrosia artemisiifolia, pre-emergence, 336 h, 62 g ai/ha, preemergence, read-out: Plant response rating, Ragweed): 100%
- pest or weed control at 125 g/ha ([10]; Ambrosia artemisiifolia, pre-emergence, 336 h, 125 g ai/ha, preemergence, read-out: Plant response rating, Ragweed): 95%
- pest or weed control at 250 g/ha ([10]; Ambrosia artemisiifolia, pre-emergence, 336 h, 250 g ai/ha, preemergence, read-out: Plant response rating, Ragweed): 95%
- pest or weed control at 31 g/ha ([11]; Chenopodium album, pre-emergence, 336 h, 31 g ai/ha, preemergence, read-out: Plant response rating, Lambsquarters): 85%
- pest or weed control at 62 g/ha ([11]; Chenopodium album, pre-emergence, 336 h, 62 g ai/ha, preemergence, read-out: Plant response rating, Lambsquarters): 95%
- pest or weed control at 125 g/ha ([11]; Chenopodium album, pre-emergence, 336 h, 125 g ai/ha, preemergence, read-out: Plant response rating, Lambsquarters): 95%
- plant injury at 31 g/ha (soybean (Glycine max); Glycine max, pre-emergence, 31 g ai/ha, preemergence, read-out: Plant response rating, Soybean): 60%
- plant injury at 62 g/ha (soybean (Glycine max); Glycine max, pre-emergence, 62 g ai/ha, preemergence, read-out: Plant response rating, Soybean): 80%
- plant injury at 125 g/ha (soybean (Glycine max); Glycine max, pre-emergence, 125 g ai/ha, preemergence, read-out: Plant response rating, Soybean): 90%
- plant injury at 250 g/ha (soybean (Glycine max); Glycine max, pre-emergence, 250 g ai/ha, preemergence, read-out: Plant response rating, Soybean): 90%
- pest or weed control at 31 g/ha ([12]; Ipomoea, pre-emergence, 336 h, 31 g ai/ha, preemergence, read-out: Plant response rating, Morningglory): 10%
- pest or weed control at 62 g/ha ([12]; Ipomoea, pre-emergence, 336 h, 62 g ai/ha, preemergence, read-out: Plant response rating, Morningglory): 60%
- pest or weed control at 125 g/ha ([12]; Ipomoea, pre-emergence, 336 h, 125 g ai/ha, preemergence, read-out: Plant response rating, Morningglory): 70%

SMILES: FC(F)(F)c1cnc(Oc2c(Br)cccc2Oc2ncc(Cl)cn2)nc1 [Compound 24]
- Plant response rating, Corn (corn (Zea mays); 31 g ai/ha, Preemergence): 5
- Plant response rating, Corn (corn (Zea mays); 62 g ai/ha, Preemergence): 20
- Plant response rating, Corn (corn (Zea mays); 125 g ai/ha, Preemergence): 45
- Plant response rating, Corn (corn (Zea mays); 250 g ai/ha, preemergence): 65
- Plant response rating, Galium ([1]; 31 g ai/ha, Preemergence): 98
- Plant response rating, Galium ([1]; 62 g ai/ha, Preemergence): 98
- Plant response rating, Galium ([1]; 125 g ai/ha, Preemergence): 100
- Plant response rating, Galium ([1]; 250 g ai/ha, preemergence): 100
- Plant response rating, Velvetleaf ([2]; 31 g ai/ha, Preemergence): 40
- Plant response rating, Velvetleaf ([2]; 62 g ai/ha, Preemergence): 85
- Plant response rating, Velvetleaf ([2]; 125 g ai/ha, Preemergence): 90
- Plant response rating, Velvetleaf ([2]; 250 g ai/ha, preemergence): 90
- Plant response rating, Johnsongrass ([3]; 31 g ai/ha, Preemergence): 40
- Plant response rating, Johnsongrass ([3]; 62 g ai/ha, Preemergence): 55
- Plant response rating, Johnsongrass ([3]; 125 g ai/ha, Preemergence): 80
- Plant response rating, Johnsongrass ([3]; 250 g ai/ha, preemergence): 100
- Plant response rating, Ryegrass, Italian ([4]; 31 g ai/ha, Preemergence): 55
- Plant response rating, Ryegrass, Italian ([4]; 62 g ai/ha, Preemergence): 90
- Plant response rating, Ryegrass, Italian ([4]; 125 g ai/ha, Preemergence): 95
- Plant response rating, Ryegrass, Italian ([4]; 250 g ai/ha, preemergence): 95
- Plant response rating, Nutsedge, Yellow ([5]; 31 g ai/ha, Preemergence): 10
- Plant response rating, Nutsedge, Yellow ([5]; 62 g ai/ha, Preemergence): 10
- Plant response rating, Nutsedge, Yellow ([5]; 125 g ai/ha, Preemergence): 30
- Plant response rating, Nutsedge, Yellow ([5]; 250 g ai/ha, preemergence): 60
- Plant response rating, Blackgrass ([6]; 31 g ai/ha, Preemergence): 60
- Plant response rating, Blackgrass ([6]; 62 g ai/ha, Preemergence): 95
- Plant response rating, Blackgrass ([6]; 125 g ai/ha, Preemergence): 95
- Plant response rating, Blackgrass ([6]; 250 g ai/ha, preemergence): 95
- Plant response rating, Waterhemp ([7]; 31 g ai/ha, Preemergence): 100
- Plant response rating, Waterhemp ([7]; 62 g ai/ha, Preemergence): 100
- Plant response rating, Waterhemp ([7]; 125 g ai/ha, Preemergence): 100
- Plant response rating, Waterhemp ([7]; 250 g ai/ha, preemergence): 100
- Plant response rating, Pigweed ([8]; 31 g ai/ha, Preemergence): 100
- Plant response rating, Pigweed ([8]; 62 g ai/ha, Preemergence): 100
- Plant response rating, Pigweed ([8]; 125 g ai/ha, Preemergence): 100
- Plant response rating, Pigweed ([8]; 250 g ai/ha, preemergence): 100
- Plant response rating, Barnyardgrass ([9]; 31 g ai/ha, Preemergence): 75
- Plant response rating, Barnyardgrass ([9]; 62 g ai/ha, Preemergence): 100
- Plant response rating, Barnyardgrass ([9]; 125 g ai/ha, Preemergence): 100
- Plant response rating, Barnyardgrass ([9]; 250 g ai/ha, preemergence): 100
- Plant response rating, Ragweed ([10]; 31 g ai/ha, Preemergence): 10
- Plant response rating, Ragweed ([10]; 62 g ai/ha, Preemergence): 10
- Plant response rating, Ragweed ([10]; 125 g ai/ha, Preemergence): 30
- Plant response rating, Ragweed ([10]; 250 g ai/ha, preemergence): 80
- Plant response rating, Lambsquarters ([11]; 31 g ai/ha, Preemergence): 75
- Plant response rating, Lambsquarters ([11]; 62 g ai/ha, Preemergence): 90
- Plant response rating, Lambsquarters ([11]; 125 g ai/ha, Preemergence): 98
- Plant response rating, Lambsquarters ([11]; 250 g ai/ha, preemergence): 98
- Plant response rating, Soybean (soybean (Glycine max); 62 g ai/ha, Preemergence): 40
- Plant response rating, Soybean (soybean (Glycine max); 125 g ai/ha, Preemergence): 50
- Plant response rating, Soybean (soybean (Glycine max); 250 g ai/ha, preemergence): 85
- Plant response rating, Morningglory ([12]; 31 g ai/ha, Preemergence): 25
- Plant response rating, Morningglory ([12]; 62 g ai/ha, Preemergence): 85
- Plant response rating, Morningglory ([12]; 125 g ai/ha, Preemergence): 80
- Plant response rating, Morningglory ([12]; 250 g ai/ha, preemergence): 95
